The values that follow come from US12439925B2, “Anti-pathogenic activity of a bifunctional peptidoglycan/chitin hydrolase” (Universiteit Antwerpen, priority 2018, dated 2025).

One test deals with C. albicans biofilms. Description: Inhibition of C. albicans biofilm formation (XTT, absorbance 492 nm). The class given is cell-based, Candida albicans. The following applies: 24 h. As to the method:
The inhibiting effects on C. albicans biofilms were assessed. Briefly, C. albicans was grown overnight in YPD medium and suspended to 10^6 CFU/ml and added to the wells of a 96 well plate (80 μl/well), together with the samples (supernatant, lactic acid, Msp1) or controls (MRS or H20). After incubation for 24 h at 37° C., the biofilms were washed twice and then 2,3-bis (2-methoxy-4- nitro-5-sulfophenyl)-2H-tetrazolium-5-carboxanilide (90 μl, 1 mg/ml) (Sigma Aldrich) and phenazine methosulphate (10 μl, 0.2 mg/ml) (Sigma Aldrich) were added to the wells. After a second incubation (37° C., 30 minutes, in the dark), the absorbance at 492 nm was measured using a Synergy™ HTX multi-mode reader (Biotek, Drogenbos, Belgium).

The subject of the next test is C. albicans. In kind it is cell-based, Candida albicans. The following applies: for effect of acids on hyphal formation in C. albicans: compared with lactic acid. The procedure:
(§1) Candida (albicans, dubliensis, and tropicalis) hyphae were induced by incubating 10^6 CFU/ml cells with 10% FCS, for 3 h at 37° C. in the wells of a 24-well plate, in a total volume of 500 μl per repetition and 4 biological repetitions per condition. To investigate the effect of lactobacilli 10^8 CFU/ml L. rhamnosus strains were added to the wells and co-incubated. To investigate the effect of Msp1, 5 μg/ml or 10 μg/ml of purified Msp1 from L. rhamnosus GG or L. rhamnosus GR-1 was added to the wells and co-incubated. To investigate the effect of acids, 100 μl of a 1% lactic acid or 1% butyric acid was added to the wells and co-incubated. After (co-) incubation for 3 h, at least 100 yeast cells and/or hyphae were counted in each well (4 per condition) and the ratio of hyphae to yeast cells was calculated.

The test system of another test is C. dubliensis. Description: Inhibition of FCS-induced hyphal formation in C. dubliensis. The class given is cell-based, Candida dubliensis. The following applies: different concentrations of Msp1. The procedure: as §1
The next test has as its system C. tropicalis. The experiment in a line: Inhibition of FCS-induced hyphal formation in C. tropicalis. The class given is cell-based, Candida tropicalis. The following applies: different concentrations of Msp1. As to the method:
as §1

The nature of test [1]: Chitinase activity based on breakdown of chitin-azure. The class given is biochemical. The following applies: compared with commercial chitinase from Streptomyces griseus; sodium acetate buffer control. The procedure:
First, the chitinase activity of Msp1 was investigated based on breakdown of chitin-azure (Sigma), as described previously. Further confirmation was based on inhibition of chitinase activity by 2.5 mM Bisdionine C (Sigma), as described previously.

“Also recorded” adds a separate entry of the source. Where two headings read alike, the source gives them in different places.

Turning to `CC(O)C(=O)O` (centres unmarked) [Lactic acid, lactic acid], the “anti-biofilm activity on C. albicans” value in the test on C. albicans biofilms (lactic acid 0.4%) is given as “showed anti-biofilm activity”. The “reduction of hyphal morphogenesis” value with C. albicans (0.5-2% lactic acid, D- and L-lactic acid 1:1) is given as “reduced hyphal morphogenesis”; in the test with C. albicans (1% lactic acid (D- and L-lactic acid 1:1)), “approximately 50%”.

For `CCCC(=O)O` [Butyric acid, butyric acid], in the test with C. albicans, the “effect of acids on hyphal formation in C. albicans” value is reported as “comparable effects”.

Turning to `Cl` [hydrochloric acid], the “effect of acids on hyphal formation in C. albicans” value with C. albicans is reported as “inhibited hyphae formation significantly”.

Regarding `Cn1cnc2c1c(=O)n(CCCn1c(=O)c3c(ncn3C)n(C)c1=O)c(=O)n2C` [Bisdionine C], the “rescue of C. albicans hyphal morphogenesis from Msp1 inhibition” value in the test on C. albicans (2.5 mM Bisdionine C in the presence of Msp1) is reported as “partially reversed; also recorded: can prevent hyphal inhibition partially”.

B1: Msp1: bifunctional peptidoglycan/chitin hydrolase, major secreted protein 1, purified from L. rhamnosus GG supernatant (protein)
chain: MVDSKKVLSVTAGFVGAAGLAALATGANTVSASTGTVSYKSGATTVWNSPSWHQVKRYVTFGDTVQLLGKTVDQNGATWYKVGDNQWIPELYLNVAGKTATVETPSSAASQTAVSQAPASQAPTSQAPATQTPAAPQTDTQTANTQLYVKNIGSAVTVWTTPAYTHATGQYLEGSQTLTAVAQQQANGETWYRLANGGYVPARFVSTTPVAVTPQPAAPQSNEASVASTNTNAANDSAAASSAAASQAAASSAAASTAAANAAVASANATASQAAASEAAASQAAASQAAASQAAASQAAASQAAASQAAASQAAASQAAASQAAASQAAANAAQQAPANQANVTTTQVNANQAQQQTATATPAVNTSNQTAAVSASRQAKIQAVIAIAEQQVGKPYVWGGKGPNSFDCSGLMYYAFLNGAGVNIGGWTVPQESSGTQVSLSALQPGDLLFWGSHGSTYHVALYIGGGTMIQAPQPGENVKYTALAYFMPDFAVRPSL
modifications: Msp1 protein
notes: bifunctional peptidoglycan/chitin hydrolase, major secreted protein 1, purified from L. rhamnosus GG supernatant
As to B1, the “anti-biofilm activity on C. albicans” value with C. albicans biofilms (Msp1 10 μg/mL) is given as “showed anti-biofilm activity”. Further, the “reduction of hyphal morphogenesis” value in the test with C. albicans (concentrations as low as 5 μg/mL) is given as “more than 50%”. Also, in the test on C. dubliensis, the “effect on FCS-induced hyphal formation in C. dubliensis” value is listed as “concentration-dependent effect”. The “effect on FCS-induced hyphal formation in C. tropicalis” value in the test with C. tropicalis is on record as “concentration-dependent effect”. Also, the “breakdown of chitin (chitin-azure)” value in test [1] is “able to break down chitin, to the same extent as a commercially available chitinase; also recorded: can break down chitin derivative, chitin-azure”.
